Laboratory results: article PMC3189276 (2011)

Target: human cannabinoid receptor 2 (hCB2R) (Homo sapiens, UniProt P34972)
Format: binding

Chain of human cannabinoid receptor 2 (hCB2R) (P34972 whole entry): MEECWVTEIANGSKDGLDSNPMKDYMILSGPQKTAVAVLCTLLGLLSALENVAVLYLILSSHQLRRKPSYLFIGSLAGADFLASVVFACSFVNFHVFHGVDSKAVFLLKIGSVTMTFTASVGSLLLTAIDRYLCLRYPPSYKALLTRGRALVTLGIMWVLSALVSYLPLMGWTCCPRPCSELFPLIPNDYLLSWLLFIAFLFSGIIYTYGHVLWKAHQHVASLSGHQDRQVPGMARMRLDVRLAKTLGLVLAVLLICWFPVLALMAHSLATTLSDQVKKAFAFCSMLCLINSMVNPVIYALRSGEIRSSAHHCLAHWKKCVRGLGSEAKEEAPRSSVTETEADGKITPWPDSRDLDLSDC

Structure (SMILES): CC(C)(CCCCCCN=C=S)c1cc(O)c2c(c1)OC(C)(C)[C@H]1CC[C@@H](CO)C[C@@H]21 [AM-841]
- % (TMH6 covalently modified): ~ 75 % (TMH6 covalently modified)
